According to PubChem BioAssay (NCI):
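1) Cells in 96-well plates. 2) Compound, 48 h, 5 concentrations. 3) Linear interpolation between surrounding doses. 4) Unreached endpoint = highest concentration. At the TGI there is no net growth.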

Experiments:
Assay in all cases: NCI tumour cell line growth inhibition, 48 h
COLO 205 colon = test system: COLO 205 colon
RPMI-8226 leukemia = test system: RPMI-8226 leukemia
MDA-N = test system: MDA-N
A549 NSCLC = test system: A549 NSCLC
HCT-15 colon = test system: HCT-15 colon
CAKI-1 renal = test system: CAKI-1 renal
HOP-92 NSCLC = test system: HOP-92 NSCLC
HCT-116 colon = test system: HCT-116 colon
UACC-257 melanoma = test system: UACC-257 melanoma
OVCAR-3 ovarian = test system: OVCAR-3 ovarian
LOX IMVI melanoma = test system: LOX IMVI melanoma
SNB-75 CNS = test system: SNB-75 CNS
BT-549 breast = test system: BT-549 breast
MDA-MB-435 = test system: MDA-MB-435
NCI-H23 lung = test system: NCI-H23 lung
SR leukemia = test system: SR leukemia
NCI-H460 lung = test system: NCI-H460 lung
K-562 leukemia = test system: K-562 leukemia
HOP-62 NSCLC = test system: HOP-62 NSCLC
HL-60(TB) leukemia = test system: HL-60(TB) leukemia
PC-3 prostate = test system: PC-3 prostate
SN12C renal = test system: SN12C renal
SF-539 CNS = test system: SF-539 CNS
MOLT-4 leukemia = test system: MOLT-4 leukemia
CCRF-CEM leukemia = test system: CCRF-CEM leukemia
MCF7 breast = test system: MCF7 breast
UACC-62 melanoma = test system: UACC-62 melanoma
OVCAR-4 ovarian = test system: OVCAR-4 ovarian
MDA-MB-231 breast = test system: MDA-MB-231 breast
786-0 renal = test system: 786-0 renal
HS 578T breast = test system: HS 578T breast
T-47D breast = test system: T-47D breast
ACHN renal = test system: ACHN renal
MALME-3M melanoma = test system: MALME-3M melanoma
NCI-H522 lung = test system: NCI-H522 lung
EKVX NSCLC = test system: EKVX NSCLC
SK-MEL-5 melanoma = test system: SK-MEL-5 melanoma
A498 renal = test system: A498 renal
SNB-19 CNS = test system: SNB-19 CNS
U251 CNS = test system: U251 CNS
SF-268 CNS = test system: SF-268 CNS
SW-620 colon = test system: SW-620 colon
IGROV1 ovarian = test system: IGROV1 ovarian
KM12 colon = test system: KM12 colon
HCC-2998 colon = test system: HCC-2998 colon
M14 melanoma = test system: M14 melanoma
SK-OV-3 ovarian = test system: SK-OV-3 ovarian
NCI/ADR-RES ovarian = test system: NCI/ADR-RES ovarian
HT29 colon = test system: HT29 colon
NCI-H226 lung = test system: NCI-H226 lung
UO-31 renal = test system: UO-31 renal
OVCAR-8 ovarian = test system: OVCAR-8 ovarian
DU-145 prostate = test system: DU-145 prostate
TK-10 renal = test system: TK-10 renal
SF-295 CNS = test system: SF-295 CNS
OVCAR-5 ovarian = test system: OVCAR-5 ovarian

`CN(/N=C/c1ccc(Cl)cc1)C1=NCCCCN1` was tested, and the TGI (COLO 205 colon) was > 100 µM, the TGI (RPMI-8226 leukemia) was > 100 µM and the TGI (MDA-N) was > 100 µM. For the same molecule, the TGI (A549 NSCLC) was > 100 µM, the TGI (HCT-15 colon) was > 100 µM and the TGI (CAKI-1 renal) was > 100 µM. The TGI (HOP-92 NSCLC) was > 100 µM, the TGI (HCT-116 colon) was > 100 µM and the TGI (UACC-257 melanoma) was > 100 µM. The TGI (OVCAR-3 ovarian) was > 100 µM, the TGI (LOX IMVI melanoma) was > 100 µM and the TGI (SNB-75 CNS) was > 100 µM. For the same molecule, the TGI (BT-549 breast) was > 100 µM, the TGI (MDA-MB-435) was > 100 µM and the TGI (NCI-H23 lung) was > 100 µM. For the same molecule, the TGI (SR leukemia) was > 100 µM, the TGI (NCI-H460 lung) was > 100 µM and the TGI (K-562 leukemia) was > 100 µM. For the same molecule, the TGI (HOP-62 NSCLC) was > 100 µM, the TGI (HL-60(TB) leukemia) was > 100 µM and the TGI (PC-3 prostate) was > 100 µM. For the same molecule, the TGI (SN12C renal) was > 100 µM, the TGI (SF-539 CNS) was > 100 µM and the TGI (MOLT-4 leukemia) was > 100 µM. The TGI (CCRF-CEM leukemia) was > 100 µM, the TGI (MCF7 breast) was > 100 µM and the TGI (UACC-62 melanoma) was > 100 µM. For the same molecule, the TGI (OVCAR-4 ovarian) was > 100 µM, the TGI (MDA-MB-231 breast) was > 100 µM and the TGI (786-0 renal) was > 100 µM. For the same molecule, the TGI (HS 578T breast) was > 100 µM, the TGI (T-47D breast) was > 100 µM and the TGI (ACHN renal) was > 100 µM. For the same molecule, the TGI (MALME-3M melanoma) was > 100 µM, the TGI (NCI-H522 lung) was > 100 µM and the TGI (EKVX NSCLC) was > 100 µM. The TGI (SK-MEL-5 melanoma) was > 100 µM, the TGI (A498 renal) was > 100 µM and the TGI (SNB-19 CNS) was > 100 µM. The TGI (U251 CNS) was > 100 µM, the TGI (SF-268 CNS) was > 100 µM and the TGI (SW-620 colon) was > 100 µM. The TGI (IGROV1 ovarian) was > 100 µM, the TGI (KM12 colon) was > 100 µM and the TGI (HCC-2998 colon) was > 100 µM. The TGI (M14 melanoma) was 57.4 µM, the TGI (SK-OV-3 ovarian) was > 100 µM and the TGI (NCI/ADR-RES ovarian) was > 100 µM. For the same molecule, the TGI (HT29 colon) was > 100 µM, the TGI (NCI-H226 lung) was > 100 µM and the TGI (UO-31 renal) was > 100 µM. For the same molecule, the TGI (OVCAR-8 ovarian) was > 100 µM, the TGI (DU-145 prostate) was > 100 µM and the TGI (TK-10 renal) was > 100 µM. The TGI (SF-295 CNS) was > 100 µM and the TGI (OVCAR-5 ovarian) was > 100 µM.
